Read-outs that look alike come from different tables or passages of the source.
Assays:
[1] = system: Cotton Aphid (aphis gossypii); assay: Cotton Aphid foliar dip test on cotton cotyledons; type: in vivo; conditions: 120 h, counts after 5 days, read-out: mortality in comparison with untreated controls
From the text: Cotton Aphid (aphis gossypii)
The active compounds were formulated in 50:50 acetone:water and 100 ppm Kinetic® surfactant (a nonionic wetting agent which is a blend of polyalkyleneoxide modified polydimethylsiloxane and polyoxypropylene-polyoxyethylene copolymers, available from Helena Chemical Company, Memphis, Tenn. 38119, U.S.A.).
Cotton plants at the cotyledon stage (one plant per pot) were infested by placing a heavily infested leaf from the main colony on top of each cotyledon. The aphids were allowed to transfer to the host plant overnight, and the leaf used to transfer the aphids was removed. The cotyledons were dipped in the test solution and allowed to dry. After 5 days, mortality counts were made.

[2] = system: Green Peach Aphid (myzus persicae); assay: Green Peach Aphid foliar dip test on pepper plants; type: in vivo; conditions: 120 h, read-out: mortality in comparison with untreated controls
Method: Green Peach Aphid (myzus persicae)
(§1) The active compounds were formulated in 50:50 acetone:water and 100 ppm Kinetic® surfactant.
Pepper plants in the 2nd leaf-pair stage (variety ‘California Wonder’) were infested with approximately 40 laboratory-reared aphids by placing infested leaf sections on top of the test plants. The leaf sections were removed after 24 hours. The leaves of the intact plants were dipped into gradient solutions of the test compound and allowed to dry. Test plants were maintained under fluorescent light (24 hour photoperiod) at about 25° C. and […] relative humidity. Aphid mortality on the treated plants, relative to mortality on check plants, was determined after 5 days.

[3] = system: Twospotted Spider Mite (Tetranychus urticae); assay: Twospotted Spider Mite dip test on lima bean plants; type: in vivo; conditions: 120 h, read-out: mortality compared to untreated controls
Method: Twospotted Spider Mite (Tetranychus urticae)
Lima bean plants in the 1st leaf-pair stage (variety ‘Henderson’) were infested with approximately 100 laboratory-reared mites per leaf by placing infested leaf sections on top of the test plants. The leaf sections were removed after 24 hours. The foliage of the intact plants was dipped into gradient solutions of the test compounds. Mite mortality was determined after 5 days.

Bean Aphid (Aphis fabae) = assay: Bean Aphid dip test on nasturtium plants; type: in vivo; conditions: 72 h, after 3 days, read-out: mortality compared to untreated controls
Method: Nasturtium plants in the 1st leaf-pair stage (variety ‘Mixed Jewle’ were infested with approximately 25 laboratory-reared aphids by placing infested cut plants on top of the test plants. The cut plants were removed after 24 hours. The foliage and stem of the test plants were dipped into gradient solutions of the test compound. Aphid mortality was determined after 3 days.

[4] = system: Silverleaf whitefly (bemisia argentifolii); assay: Silverleaf whitefly test on dipped cotton cotyledons; type: in vivo; conditions: 72 h, whitefly adults on cotton, 3 days after treatment, read-out: mortality compared to untreated controls
Method: Silverleaf whitefly (bemisia argentifolii)
as §1
Selected cotton plants were grown to the cotyledon state (one plant per pot). The cotyledons were dipped into the test solution to provide complete coverage of the foliage and placed in a well-vented area to dry. Each pot with treated seedling was placed in a plastic cup and 10 to 12 whitefly adults (approximately 3-5 day old) were introduced. The cups were covered with a re-usable screened lid (150 micron mesh polyester screen PeCap from Tetko Inc). Test plants were maintained in the holding room at about 25° C. and 20-40% relative humidity for 3 days avoiding direct exposure to the fluorescent light (24 hour photoperiod) to prevent trapping of heat inside the cup.
Mortality was assessed 3 days after treatment of the plants.

[5] = 300 ppm, green peach aphid on pepper, after 5 days
[6] = 300 ppm, spider mite on lima bean, after 5 days

| melting point | Structure (SMILES) | mortality at 300 ppm [1] | mortality at 300 ppm [2, 5] | mortality at 300 ppm [3, 6] | other results |
| --- | --- | --- | --- | --- | --- |
| 158 to 160 °C | CN1CCN(C2=Cc3ccccc3C2)CC1 |  |  |  |  |
| 124 to 126 °C | CCN1CCN(C2=Cc3ccccc3C2)CC1 |  |  |  |  |
| 68 to 70 °C | CCN1CCN(C2=CCCc3ccccc32)CC1 |  |  |  |  |
|  | CN1CCN([C@@H]2C[C@@H](c3ccc(F)cc3)c3ccc(Cl)cc32)CC1 (relative stereo) [Compound 61, Trans-1-[3-(4-fluorophenyl)-6-chloro-2,3-dihydro-1H-inden-1-yl]4-methylpiperazine] | > 85% | > 85% |  |  |
|  | CN1CCN(c2cccc3ccccc23)CC1 [Compound 5, 1-Methyl-4-(1-naphthyl)-piperazine] |  |  |  | mortality at 300 ppm [2]: > 85% |
|  | CN1CCN(c2nccc3ccccc23)CC1 [Compound 12, 1-(1-Isoquinolinyl)-4-methylpiperazine] |  |  |  | mortality at 300 ppm [3]: > 70% |
|  | CN1CCN(C2CCc3ccccc3C2)CC1 (stereo not shown) [Compound 14, 1-(1,2,3,4-Tetrahydro-2-naphthalenyl)-4-methylpiperazine] |  |  | > 70% |  |
|  | CN1CCN(C2CCSc3ccc(Cl)cc32)CC1 (stereo not shown) [Compound 16, 1-(6-Chloro-3,4-dihydro-2H-thiochromen-4-yl)-4-methylpiperazine] | > 85% | > 85% |  | mortality at 300 ppm (Bean Aphid (Aphis fabae)): > 70% |
|  | CN1CCN(C2CCCc3ccc(F)cc32)CC1 (stereo not shown) [Compound 20, 1-(7-Fluoro-1,2,3,4-tetrahydro-1-naphthalenyl)-4-methylpiperazine] | > 85% | > 85% | > 70% | mortality at 300 ppm [4]: > 95% |
|  | CN1CCN(C2=CCCc3ccc(F)cc32)CC1 [Compound 21, 1-(7-Fluoro-3,4-dihydro-1-naphthalenyl)-4-methylpiperazine] |  |  | > 70% |  |

Source: patent US20060166984A1, “Amino substituted benzo(hetero)cyclic derivatives” (priority 2003, published 2006)
